The results in this text go back to patent US12295959B2 (priority 2021, dated 2025).

Assay [1] has as its target T1, 5-HT2C edited (accession number AAF35842.1) (Homo sapiens, UniProt P28335, I156V/I160V/N158S). Description: cell-based.
Target sequence in this assay (P28335 whole entry I156V/N158S/I160V, looked up): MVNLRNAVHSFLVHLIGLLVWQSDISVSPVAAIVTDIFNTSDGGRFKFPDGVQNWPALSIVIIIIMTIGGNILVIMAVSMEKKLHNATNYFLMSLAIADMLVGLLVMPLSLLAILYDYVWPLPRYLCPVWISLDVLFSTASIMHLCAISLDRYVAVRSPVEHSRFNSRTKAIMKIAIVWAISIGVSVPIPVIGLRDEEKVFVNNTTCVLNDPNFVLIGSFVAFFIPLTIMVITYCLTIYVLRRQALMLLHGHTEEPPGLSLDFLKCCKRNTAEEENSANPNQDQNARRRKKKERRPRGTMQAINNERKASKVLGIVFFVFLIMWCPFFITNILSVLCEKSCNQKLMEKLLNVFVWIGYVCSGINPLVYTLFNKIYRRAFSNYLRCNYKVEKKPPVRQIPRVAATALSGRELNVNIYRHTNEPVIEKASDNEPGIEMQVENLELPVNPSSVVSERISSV
The target of assay [2] is T1, 5-HT2C edited (accession number AAF35842.1). Description: biochemical. It is filed as binding.
Target sequence in this assay (P28335 33-458 I156V/N158S/I160V limits assumed): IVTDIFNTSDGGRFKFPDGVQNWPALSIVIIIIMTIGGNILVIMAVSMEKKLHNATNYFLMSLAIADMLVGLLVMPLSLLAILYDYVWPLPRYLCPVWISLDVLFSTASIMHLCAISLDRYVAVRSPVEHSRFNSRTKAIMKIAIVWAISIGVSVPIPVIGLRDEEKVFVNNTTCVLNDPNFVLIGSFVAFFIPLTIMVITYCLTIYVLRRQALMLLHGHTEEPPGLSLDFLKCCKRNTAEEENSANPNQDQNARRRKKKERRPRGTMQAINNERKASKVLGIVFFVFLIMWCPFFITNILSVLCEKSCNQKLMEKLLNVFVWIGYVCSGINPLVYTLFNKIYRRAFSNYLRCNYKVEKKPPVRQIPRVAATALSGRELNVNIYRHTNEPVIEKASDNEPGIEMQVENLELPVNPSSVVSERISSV
Another assay deals with 5-HT2C (Homo sapiens, UniProt P28335, I156V/I160V/N158S). Description: cell-based.

The structures appear in SMILES notation. Where only a bound is given, the exact number is not on record here.

Chain of 5-HT2C (P28335 33-458 I156V/N158S/I160V limits assumed): as above

On to `CN1CCc2[nH]c3cc(OCc4ccccc4)ccc3c2CC1` [Compound 1, 8-(benzyloxy)-3-methyl-1,2,3,4,5,6-hexahydroazepino[4,5-b]indole], for which the concentration for a half-maximal effect (EC50) in assay [1] was in the range of 1000 to 10000 nM. The molecule further gave a half-inhibitory concentration (IC50) in assay [2] of 101 to 1000 nM.
Turning to `CN1CCc2[nH]c3cccc(OCc4ccccc4)c3c2CC1` [Compound 2, 10-(benzyloxy)-3-methyl-1,2,3,4,5,6-hexahydroazepino[4,5-b]indole], the half-maximal inhibitory concentration (IC50) on 5-HT2C is 10 to 100 nM; in assay [2], < 10 nM. Moreover, the EC50 in assay [1] fell in the range of 10 to 100 nM.
Consider `c1ccc(COc2ccc3c4c([nH]c3c2)CCNCC4)cc1` [Compound 3, 8-(benzyloxy)-1,2,3,4,5,6-hexahydroazepino[4,5-b]indole], for which the EC50 in assay [1] lay within 101 to 1000 nM. Further, the IC50 in assay [2] was in the range of 101 to 1000 nM.
In the case of `c1ccc(COc2cccc3[nH]c4c(c23)CCNCC4)cc1` [Compound 4, 10-(benzyloxy)-1,2,3,4,5,6-hexahydroazepino[4,5-b]indole], in assay [1], the 50% effective concentration (EC50) was < 10 nM. Further, in assay [2], the 50% inhibitory concentration (IC50) is < 10 nM.
Regarding `Cn1c2c(c3ccc(OCc4ccccc4)cc31)CCNCC2` [Compound 5, 8-(benzyloxy)-6-methyl-1,2,3,4,5,6-hexahydroazepino[4,5-b]indole], the half-inhibitory concentration (IC50) at 5-HT2C was > 10000 nM; in assay [2], 101 to 1000 nM. For the same molecule, the concentration giving a half-maximal response (EC50) in assay [1] is 1000 to 10000 nM.
The molecule `CN1CCc2c(n(C)c3cc(OCc4ccccc4)ccc23)CC1` [Compound 6, 8-(benzyloxy)-3,6-dimethyl-1,2,3,4,5,6-hexahydroazepino[4,5-b]indole] yielded a concentration giving a half-maximal response (EC50) in assay [1] of 1000 to 10000 nM. Moreover, the 50% inhibitory concentration (IC50) in assay [2] was 101 to 1000 nM.
On to `Fc1ccc(COc2ccc3c4c([nH]c3c2)CCNCC4)cc1` [Compound 7, 8-((4-fluorobenzyl)oxy)~1,2,3,4,5,6-hexahydroazepino[4,5-b]indole], for which the half-maximal inhibitory concentration (IC50) against 5-HT2C was > 10000 nM; in assay [2], 101 to 1000 nM. The molecule further had a concentration giving a half-maximal response (EC50) in assay [1] of 101 to 1000 nM.
Consider `CN1CCc2[nH]c3cc(OCc4ccc(F)cc4)ccc3c2CC1` [Compound 8, 8-((4-fluorobenzyl)oxy)-3-methyl-1,2,3,4,5,6-hexahydroazepino[4,5-b]indole], for which the IC50 against 5-HT2C fell in the range of 1000 to 10000 nM; in assay [2], 101 to 1000 nM. The EC50 in assay [1] is 1000 to 10000 nM.
The molecule `Cn1c2c(c3ccc(OCc4ccc(F)cc4)cc31)CCNCC2` [Compound 9, 8-((4-fluorobenzyl)oxy)-6-methyl-1,2,3,4,5,6-hexahydroazepino[4,5-b]indole] returned an EC50 in assay [1] of 1000 to 10000 nM. This molecule came in with an IC50 in assay [2] of 101 to 1000 nM.
As to `CN1CCc2c(n(C)c3cc(OCc4ccc(F)cc4)ccc23)CC1` [Compound 10, 8-((4-fluorobenzyl)oxy)-3,6-dimethyl-1,2,3,4,5,6-hexahydroazepino[4,5-b]indole], the half-inhibitory concentration (IC50) against 5-HT2C fell in the range of 1000 to 10000 nM; in assay [2], 101 to 1000 nM. The same molecule yielded an EC50 in assay [1] of 1000 to 10000 nM.
In the case of `c1ccc(Oc2ccc3c4c([nH]c3c2)CCNCC4)cc1` [Compound 11, 8-phenoxy-1,2,3,4,5,6-hexahydroazepino[4,5-b]indole], the IC50 on 5-HT2C is > 10000 nM; in assay [2] it was 101 to 1000 nM. Moreover, the half-maximal effective concentration (EC50) in assay [1] was 101 to 1000 nM.
On to `CN1CCc2[nH]c3cc(Oc4ccccc4)ccc3c2CC1` [Compound 12, 3-methyl-8-phenoxy-1,2,3,4,5,6-hexahydroazepino[4,5-b]indole], for which the concentration for half-maximal inhibition (IC50) against 5-HT2C was > 10000 nM; in assay [2], 101 to 1000 nM. The molecule further displayed an EC50 in assay [1] of 1000 to 10000 nM.
Molecule `Cn1c2c(c3ccc(Oc4ccccc4)cc31)CCNCC2` [Compound 13, 6-methyl-8-phenoxy-1,2,3,4,5,6-hexahydroazepino[4,5-b]indole] registered an EC50 in assay [1] of 1000 to 10000 nM. The molecule further showed a concentration for half-maximal inhibition (IC50) in assay [2] of 101 to 1000 nM.
As for `CN1CCc2c(n(C)c3cc(Oc4ccccc4)ccc23)CC1` [Compound 14, 3,6-dimethyl-8-phenoxy-1,2,3,4,5,6-hexahydroazepino[4,5-b]indole], the concentration for half-maximal inhibition (IC50) at 5-HT2C was > 10000 nM; in assay [2] it was 101 to 1000 nM. The molecule also gave a concentration for a half-maximal effect (EC50) in assay [1] of 101 to 1000 nM.
`Fc1ccc(Oc2ccc3c4c([nH]c3c2)CCNCC4)cc1` [Compound 15, 8-(4-fluorophenoxy)-1,2,3,4,5,6-hexahydroazepino[4,5-b]indole] had a half-maximal effective concentration (EC50) in assay [1] of 101 to 1000 nM. Besides, the half-inhibitory concentration (IC50) in assay [2] lay within 101 to 1000 nM.
For `CN1CCc2[nH]c3cc(Oc4ccc(F)cc4)ccc3c2CC1` [Compound 16, 8-(4-fluorophenoxy)-3-methyl-1,2,3,4,5,6-hexahydroazepino[4,5-b]indole], the IC50 at 5-HT2C is > 10000 nM; in assay [2], 101 to 1000 nM. In assay [1], the EC50 lay in the range of 1000 to 10000 nM.
Regarding `Cn1c2c(c3ccc(Oc4ccc(F)cc4)cc31)CCNCC2` [Compound 17, 8-(4-fluorophenoxy)-6-methyl-1,2,3,4,5,6-hexahydroazepino[4,5-b]indole], the EC50 in assay [1] is 1000 to 10000 nM. The molecule further had a half-maximal inhibitory concentration (IC50) in assay [2] of 10 to 100 nM.
`CN1CCc2c(n(C)c3cc(Oc4ccc(F)cc4)ccc23)CC1` [Compound 18, 8-(4-fluorophenoxy)-3,6-dimethyl-1,2,3,4,5,6-hexahydroazepino[4,5-b]indole]: the IC50 against 5-HT2C was in the range of 1000 to 10000 nM; in assay [2], 101 to 1000 nM. Further, the concentration giving a half-maximal response (EC50) in assay [1] lay within 101 to 1000 nM.
In the case of `Cn1c2c(c3c(OCc4ccccc4)cccc31)CCNCC2` [Compound 19, 10-(benzyloxy)-6-methyl-1,2,3,4,5,6-hexahydroazepino[4,5-b]indole], the EC50 in assay [1] was 10 to 100 nM. This molecule also gave an IC50 in assay [2] of 10 to 100 nM.
As to `c1ccc(Oc2cccc3[nH]c4c(c23)CCNCC4)cc1` [Compound 20, 10-phenoxy-1,2,3,4,5,6-hexahydroazepino[4,5-b]indole], the concentration for a half-maximal effect (EC50) in assay [1] was < 10 nM. The IC50 in assay [2] is < 10 nM.
For `Fc1ccc(Oc2cccc3[nH]c4c(c23)CCNCC4)cc1` [Compound 21, 10-(4-fluorophenoxy)-1,2,3,4,5,6-hexahydroazepino[4,5-b]indole], the EC50 in assay [1] is < 10 nM. Moreover, the 50% inhibitory concentration (IC50) in assay [2] is < 10 nM.
Take `CN1CCc2[nH]c3cccc(Oc4ccc(F)cc4)c3c2CC1` [Compound 22, 10-(4-fluorophenoxy)-3-methyl-1,2,3,4,5,6-hexahydroazepino[4,5-b]indole]: the values for the concentration for half-maximal inhibition (IC50) (against 5-HT2C; in assay [2]) were > 10000 nM and 10 to 100 nM, respectively. The EC50 in assay [1] was < 10 nM.
As to `Cn1c2c(c3c(Oc4ccc(F)cc4)cccc31)CCNCC2` [Compound 23, 10-(4-fluorophenoxy)-6-methyl-1,2,3,4,5,6-hexahydroazepino[4,5-b]indole], the EC50 in assay [1] was 101 to 1000 nM. Moreover, in assay [2], the IC50 was in the range of 10 to 100 nM.
In the case of `CN1CCc2c(n(C)c3cccc(Oc4ccc(F)cc4)c23)CC1` [Compound 24, 10-(4-fluorophenoxy)-3,6-dimethyl-1,2,3,4,5,6-hexahydroazepino[4,5-b]indole], the concentration for half-maximal inhibition (IC50) (against 5-HT2C; in assay [2]) was 10 to 100 nM throughout. This molecule came in with an EC50 in assay [1] of 101 to 1000 nM.
On to `c1ccc(COc2ccc3[nH]c4c(c3c2)CCNCC4)cc1` [Compound 25, 9-(benzyloxy)-1,2,3,4,5,6-hexahydroazepino[4,5-b]indole], for which the half-maximal inhibitory concentration (IC50) at 5-HT2C was > 10000 nM; in assay [2] it was 10 to 100 nM. Moreover, the EC50 in assay [1] fell in the range of 10 to 100 nM.
As for `CN1CCc2[nH]c3ccc(OCc4ccccc4)cc3c2CC1` [Compound 26, 9-(benzyloxy)-3-methyl-1,2,3,4,5,6-hexahydroazepino[4,5-b]indole], the half-inhibitory concentration (IC50) (on 5-HT2C; in assay [2]) was 101 to 1000 nM each time. In assay [1], the EC50 fell in the range of 101 to 1000 nM.
In assay [1], `c1ccc(COc2cccc3c4c([nH]c23)CCNCC4)cc1` [Compound 27, 7-(benzyloxy)-1,2,3,4,5,6-hexahydroazepino[4,5-b]indole] returned an EC50 of 101 to 1000 nM. In assay [2], this molecule came in with an IC50 of 101 to 1000 nM.
Regarding `CN1CCc2[nH]c3c(OCc4ccccc4)cccc3c2CC1` [Compound 28, 7-(benzyloxy)-3-methyl-1,2,3,4,5,6-hexahydroazepino[4,5-b]indole], the IC50 (at 5-HT2C; in assay [2]) was 101 to 1000 nM each time. The same molecule returned an EC50 in assay [1] of 101 to 1000 nM.
Take `CN1CCc2[nH]c3c(Br)ccc(OCc4ccccc4)c3c2CC1` [Compound 29, 10-(benzyloxy)-7-bromo-3-methyl-1,2,3,4,5,6-hexahydroazepino[4,5-b]indole]: the concentration for half-maximal inhibition (IC50) against 5-HT2C is 10 to 100 nM; in assay [2], < 10 nM. Also, in assay [1], the EC50 is > 10000 nM.

What is called EC50 is the concentration needed to bring the measured effect to its halfway point. A low value points to a more potent agent. By IC50 is commonly meant the point on the concentration scale where inhibition reaches its midpoint. Lower therefore signals greater potency in that assay.
